Data reported in patent US5230998A, “Method for the prescreening of drugs targeted to the V3 hypervariable loop of the HIV-1 envelope glycoprotein gp 120” (priority 1991, dated 1993).
Converted amounts (≈) assume the structure as drawn.

Key:
[1] = biological target: T1, HIV-1 gp120 V3 hypervariable loop (Human immunodeficiency virus type 1 group M subtype B, UniProt P03375); test: biochemical; assay type: binding; conditions: for Inhibitory activity: Table 1, reaction between HIV-1 gp120 and anti-V3 loop antibodies; for inhibition at 50 µg/mL: read-out: percentage of inhibition
T1 construct: Polystyrene plates coated with recombinant gp120 and gp160, respectively; purchased American Bio-Technologies, Inc., Cambridge, Mass; host or cells: baculovirus expression system
Protocol: Wells of 96 well polystyrene plates (Immulon 2, Dynatech Laboratories, Inc., Chantilly, Va.) were coated with synthetic peptides (200 μl; 20μg/ml in 0.1 M Tris-HCl, pH 8.8) overnight at 20° C. The peptides were from the sequence of HIV-1, clone BH 10 envelope glycoproteins gp120 and gp41 (Neurath, A. R., Strick, N., and Lee, E. Y. S. (1990), "B-cell Epitope Mapping of Human Immunodeficiency virus (HIV-1) Envelope Glycoprotein with Long (19 to 36-residue) Synthetic Peptides", J. Gen. Virol., 71., 85-95) and from V3 hypervariable loops of 21 distinct HIV-1 isolates (clones) Neurath, A. R., and Strick, N., (1990), "Confronting the Hypervariability of an Immunodominant Epitope Eliciting Virus Neutralizing Antibodies from the Envelope Glycoprotein of the Human Immunodeficiency Virus Type 1 (HIV-1)", Molec. Immunol., 27, 539-549. The latter peptides corresponded to full-length V3 loops generated by disulfide bonds between N- and C- terminal cysteine residues. After washing with 0.14 M NaCl, 0.01 M Tris, 0.02% NaN3 (TS), the wells were postcoated with a mixture of bovine serum albumin (BSA) and gelatine (10 and 2.5 mg/ml, respectively) in TS. BSA was omitted from the postcoating solution for RIA tests in which antibodies to ATA were used. Polystyrene plates coated with recombinant gp120 and gp160, respectively, (500 ng/well; from American Bio-Technologies, Inc., Cambridge, Mass. and MicroGeneSys, Inc., West Haven, Conn., respectively) were also used for RIA and ELISA tests.
To define sites on gp120/gp41 reacting with ATA, the inhibitory effect of this compound was studied by RIA tests using gp120- and gp160-coated wells, respectively, and antisera (final dilutions 1:150) against synthetic peptides from the entire sequence of gp120/gp41 of HIV-1 BH 10. The preparation and biological properties of these antisera were described elsewhere (Neurath et al., (1990), J. Gen. Virol., 71, 85-95). Each of the antisera was diluted in a mixture of fetal bovine serum and goat serum (9:1) containing 0.1% Tween 20, adjusted to pH 8. ATA (final concentration 50 μg/ml) was added in one set of assays, but was omitted from a parallel set. After incubation overnight at 25° C., the plates were washed with TS. Attached rabbit IgG was detected using ^125 I-labeled anti-rabbit IgG, as described before (Neurath et al., 1990, J. Gen. Virol., 71, 85-95). Similarly, the inhibitory effect of ATA on the reaction of peptides derived from gp120/gp41 and of peptides derived from V3 hypervariable loops from gp120 of distinct HIV-1 isolates with the respective homologous anti-peptide antisera was studied. In the latter case, antisera were diluted 1:1,000 for the assays.
The inhibitory effect of ATA and of other compounds on the reaction between antibodies with predetermined specificity and gp120 (or synthetic peptides derived from it) was determined from the formula: [formula] An analogous formula was used to calculate the percentage of inhibition from optical density readings resulting from ELISA tests.
Chemicals other than ATA were screened for inhibitory activity essentially as described above. […] Chemicals with inhibitory activity established by the respective immunoassays were screened further for antiviral activity.
Commercially available ATA is a mixture of monomers and polymers of distinct molecular masses (Gonzalez et al., (1979) Biochem. Biophys. Acta, 562, 534-545); Cushman et al., (1991), J. Chem., 34, 329-337). The monomers [molecular mass (M.W.)=422.4 daltons] were separated from the polymers. ATA (20 mg/ml in the form of free acid neutralized with 0.4 M NaOH) was dialyzed against H2 O in a dialysis membrane with a molecular mass cutoff of 500 daltons.

HIV-1 = test: Antiviral activity: inhibition of P24 production in MT-2 cells; assay type: cell-based, HIV-1 IIIB; set-up: inhibition: dose or concentration left out as unconfirmed; conditions: Human immunodeficiency virus 1, MT2, Table 1; for EC50: read-out: EC50 (concentration at which the production of P24 was reduced to 50% of that detected in control cultures); for inhibition: read-out: percentage of inhibition of P24 nucleoprotein production
Protocol: All chemicals were tested at serial two-fold dilutions (1.25-80 μg/ml, prepared from a stock solution containing 10 mg/ml in dimethylsulfoxide). The chemicals were obtained from Aldrich, Milwaukee, Wis. or were synthesized. Their inhibitory activity was determined by two distinct methods, based on inhibition of synthesis of core protein P24 and on protection by the chemicals of cells against the cytopathic effect of HIV-1 (colorimetric method) respectively.
The chemicals were serially diluted in RPMI 1640 medium without phenol red (GIBCO, Grand Island, N.Y.) containing 10% fetal calf serum (FCS). Aliquots of the diluted solutions were added to wells of 96 well plates and mixed with an equal volume of diluted HIV-1 [multiplicity of infection (MOI) =0.0045]. After incubation for 1 hour at 37° C., 25 μl of polybrene (1 μg/ml) treated MT-2 cells (Harada, S., Koyanagi, Y., Yamamoto, N., (1985), "Infection of HTLV-III/LAV in HTLV-I-carrying Cells MT-2 and MT-4 and Application in a Plaque Assay", Science, 229, 563-566), (5,000 cells/well) were added. The mixture was incubated for 1 hour at 37° C. and the volume was adjusted with RPMI 1640 medium with 10% FCS to 200 μl. On the fourth day after incubation at 37° C., 100 μl of culture supernatants were collected from each well and equal volumes of fresh medium were added to the wells. The supernatants were assayed for P24 using a kit from Coulter Immunology (Hialeah, Fla.). On the sixth day, an indicator XTT tetrazolium dye (1 mg/ml; 50 μl/well; PolySciences, Inc., Warrington, Penna.) was added to the cells. After 4 hours, intracellular formazan was determined colorimetrically at 450 nm.
^c Chemicals with inhibitory activity in ELISA (RIA) tests were teste
^d EC50 = concentration at which the production of P24 was […]

| SMILES | Inhibitory activity [1] | inhibition at 50 µg/mL [1] [%] | EC50 (HIV-1) [µg/mL] | inhibition (HIV-1) [%] |
| --- | --- | --- | --- | --- |
| O=C(O)CC(c1ccccc1)(c1ccccc1)c1ccccc1 [compound 2] | + | 27 |  |  |
| c1ccc(CNc2ccccc2)cc1 [compound 42] | + | 28.8 |  |  |
| Nc1ccccc1-c1ccccc1 [compound 50] | + | 70.5 |  |  |
| Nc1ccc2c(c1)Cc1cc(Br)ccc1-2 [compound 63] | + | 37.1 | 68 (≈ 261 µM) | 19 |
| Nc1ccc2c3c(cccc13)-c1ccccc1-2 [compound 65] | + | 27.4 | 3 (≈ 13.8 µM) | 100 |
| c1cnc2c(c1)CCCCCCCCCC2 [compound 67] | + | 36.8 | 37 (≈ 170 µM) | 53 |
| O=Cc1ccc(-c2ccccc2)cc1 [compound 93] | + | 21 | > 80 | 32 |
| O=C1OC(=O)C2C3c4ccccc4C(c4ccccc43)C12 (stereo not drawn) [compound 106] | + | 77.5 | 18 (≈ 65.1 µM) | 82 |
| O=C(O)CNC(c1ccccc1)(c1ccccc1)c1ccccc1 [compound 108] | + | 33.5 |  |  |
| CC(C)C[C@H](NC(=O)[C@H](C)NC(=O)[C@H](CC(C)C)NC(c1ccccc1)(c1ccccc1)c1ccccc1)C(=O)O [compound 114] | + | 62.1 | > 80 | 14 |
| O=C(O)C1=CC(=C(c2ccc(O)c(C(=O)O)c2)c2ccc(O)c(C(=O)O)c2)C=CC1=O [compound 122] | + |  | 12 (≈ 28.4 µM) | 83 |
| O=c1cc2oc3cc(O)c(O)cc3c(-c3ccccc3)c-2cc1O [compound 128] | + | 58.6 | 27 (≈ 84.3 µM) | 85 |
| O=C(O)COc1cc2oc3cc(=O)c(OCC(=O)O)cc-3c(-c3ccccc3)c2cc1OCC(=O)O [compound 129] | + | 56.8 | 15 (≈ 30.3 µM) | 88 |
| CC1=C(C(=O)O)C(=O)C(C(C)(C)C)=CC1=C(c1cc(C(C)(C)C)c(O)c(C(=O)O)c1C)c1cc(C(C)(C)C)c(O)c(C(=O)O)c1C [compound 130] | + | 38.6 | 80 (≈ 126 µM) | 38 |
| O=C(O)C1=CC(I)=CC(=C(c2cc(I)cc(C(=O)O)c2O)c2cc(I)cc(C(=O)O)c2O)C1=O [compound 131] | + | 74.8 | 71 (≈ 88.7 µM) | 41 |
| CC(=O)C1=CC(=C(c2ccc(O)c(C(C)=O)c2)c2ccc(O)c(C(C)=O)c2)C=CC1=O [compound 140] | + | 69.4 |  |  |
| CC1=C(CCC(=O)O)c2cc3[nH]c(cc4nc(cc5[nH]c(cc1n2)c(C(O)CO)c5C)C(C(O)CO)=C4C)c(C)c3CCC(=O)O (stereo not drawn) [compound 150] | + | 43.3 | 38.2 (≈ 60.6 µM) | 99 |
| C=CC1=C(C)c2cc3[nH]c(cc4nc(cc5[nH]c(cc1n2)c(C)c5CO)C(C)=C4CCC(=O)O)c(CCC(=O)O)c3C [compound 152] | + | 82.6 | 3 (≈ 5.29 µM) | 100 |
| C=CC1=C(C)c2cc3[nH]c(cc4nc(cc5[nH]c(cc1n2)c(C)c5C=C)C(C)=C4CCC(=O)O)c(CCC(=O)O)c3C [compound 158] | + | 55.8 | 1 (≈ 1.78 µM) | 100 |
| O=C(O)c1ccc(-c2c3nc(c(-c4ccc(C(=O)O)cc4)c4ccc([nH]4)c(-c4ccc(C(=O)O)cc4)c4nc(c(-c5ccc(C(=O)O)cc5)c5ccc2[nH]5)C=C4)C=C3)cc1 [compound 160] | + | 84.3 | 1.3 (≈ 1.64 µM) | 100 |
| C1=Cc2nc1c(-c1ccncc1)c1ccc([nH]1)c(-c1ccncc1)c1nc(c(-c3ccncc3)c3ccc([nH]3)c2-c2ccncc2)C=C1 [compound 161] | + | 66.4 | > 80 | 0 |
| O=C(O)CCC1=C(CC(=O)O)c2cc3[nH]c(cc4nc(cc5[nH]c(cc1n2)c(CC(=O)O)c5CCC(=O)O)C(CC(=O)O)=C4CCC(=O)O)c(CC(=O)O)c3CCC(=O)O [compound 163] | + | 41.1 | 9.8 (≈ 11.8 µM) | 99 |
| O=C(O)CCC1=C(CC(=O)O)c2cc3[nH]c(cc4nc(cc5[nH]c(cc1n2)c(CCC(=O)O)c5CC(=O)O)C(CC(=O)O)=C4CCC(=O)O)c(CC(=O)O)c3CCC(=O)O [compound 164] | + | 45 | 2.3 (≈ 2.77 µM) | 100 |
